This note sets out measurements from US20110124715A1, “Antiviral Oligonucleotides Having a Conserved G4 Core Sequence” (priority 1992, published 2011).

Values joined by “and” are separate entries in the source; they are usually repeats but may differ in a detail not shown here. Equal values may be shown once. Read-outs that look alike come from different tables or passages of the source. Marks after values point to notes of the source that are not given here. Strand notation (5' to 3'): a small letter for the sugar, then the base; units joined by * are phosphorothioate-linked, units joined directly phosphodiester-linked; [ ] holds rarer units or linkages, { } end groups; capitals alone tell only the bases. [I] = hypoxanthine (inosine); d = 2'-deoxy (DNA)

The subject of series [1] is HIV-1IIIB.
The subject of series [2] is human T-lymphoblastoid CEM cell line.
In series [3] the test system is HSV-1 (KOS). The experiment in a line: HSV-1 infection ELISA assay. The format is cell-based, herpes simplex virus. (In an ELISA, binding on a coated surface is turned into a signal by an enzyme label.)
Series [4] concerns the target T1, human type II phospholipase A2 (Homo sapiens, UniProt P14555).
T1 sequence (P14555 21-144): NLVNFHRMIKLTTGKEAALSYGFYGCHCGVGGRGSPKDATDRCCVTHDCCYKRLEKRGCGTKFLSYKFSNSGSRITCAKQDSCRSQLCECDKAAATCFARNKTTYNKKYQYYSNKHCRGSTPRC
The experiment in a line: Phospholipase A2 assay, 3H-oleic acid labelled E. coli substrate. The format is biochemical. The settings on record: for % Inhibition (1 μM): Table 5, two separate experiments; for effect on substrate kinetics: increasing amounts of E. coli substrate, ISIS 3481 at 0.2 μM and 2 μM.

Series [5] deals with HIV-1IIIB. The experiment in a line: Acute HIV infection assay (XTT, CEM cells). The settings on record: Table 3; for IC50: inhibition of HIV. For orientation: Formazan colour is commonly taken as a measure of viable cells.
A short description of series [6]: Fraction tetramer by size exclusion chromatography. The settings on record: Table 16; asterisk = more than one aggregate species. The format is physicochemical.
For series [7], the system named is HIV-1. The settings on record: Table 16, acute HIV assay.
Series [8] relates to HIV-1. The settings on record: 5 μM oligonucleotide.
Setting [9] is: Table 12, inosine-substituted oligonucleotides against HSV.
Where [10] appears, read: Table 1, 50% inhibition of HSV replication relative to control infected cells.

Regarding “4721 (CACGGGGTCG; phosphorothioate, further chemistry not given here) [compound 4721]”, the “TI (TC50/IC50)” value in series [1] came to 546. Further, the TC50 in series [2] was found to be 142 µM. As usually defined, the EC50 is the concentration giving half of the maximal effect. Low values mean a more potent agent, high ones a less potent agent. As for “4925 (GTTGGAGACCGGNGTTGGNG; DNA, [I] at 13, 19, backbone not given here) [compound 4925]”, in series [3] (setting [9]), the EC50 is 1600 nM. Turning to “4947 (dA*dG*dG*dT*dG*dG*dG*dT*dA*dT*dA*dG) [compound 4947]”, the “% Inhibition (1 μM)” value in series [4] (1 μM) stood at 22.7%. Still for that read-out and setting: as for “4955 (dG*dG*dG*dA*dG*dG*dG*dT*dA*dT*dA*dG) [compound 4955]”, the figure is 97.5%. The same measure, in the same setting: as for “4956 (dG*dG*dG*dC*dG*dG*dG*dT*dA*dT*dA*dG) [compound 4956]”, the figure is 92.0%. For “4957 (dG*dG*dG*dT*dG*dG*dA*dT*dA*dT*dA*dG) [compound 4957]”, the “% Inhibition (1 μM)” value in series [4] (1 μM) stood at 81.9%.

Take “4962 (dG*dG*dG*dT*dG*dG*dG*dT*dA*dT) [compound 4962]”: the “% Inhibition (1 μM)” value in series [4] (1 μM) is 36.3%.

With “5295 (GTTGGAGACCGGGNTTGGGG; DNA, [I] at 14, backbone not given here) [compound 5295]”, the EC50 in series [3] (setting [9]) was above 3000 nM.

In series [3] (setting [9]), “5296 (GTTGGAGACCGGGGTTGGNG; DNA, [I] at 19, backbone not given here) [compound 5296]” registered a concentration for a half-maximal effect (EC50) of 800 nM.

“5297 (CACGAAAGGCATGACCGNGGC; DNA, [I] at 18, backbone not given here) [compound 5297]”: the 50% effective concentration (EC50) in series [3] (setting [9]) was above 3000 nM. With “5309 (GTTGGAGACCGNGTTGGGG; inosine substitution, further chemistry not given here) [compound 5309]”, the EC50 in series [3] (setting [9]) is above 3000 nM.

“5310 (GTTGGAGACCGGGGTTGGGN; DNA, [I] at 20, backbone not given here) [compound 5310]” had an EC50 in series [3] (setting [9]) of 400 nM. In series [2], “5366 (TTGGGGTTGGGGTTGGGGTTGGGGG; phosphorothioate, further chemistry not given here) [compound 5366]” displayed a TC50 of 22 µM. Also, the “TI (TC50/IC50)” value in series [5] is on record as 220. “5544 (GGGTGGGTATAG; phosphorothioate, further chemistry not given here) [compound 5544]”: the “% Inhibition (1 μM)” value in series [4] (1 μM) is reported as 50%. The same compound registered an EC50 in series [3] (setting [10]) above 3000 nM. As a reminder, the IC50 is the point on the concentration scale where inhibition reaches its midpoint. High values mean lower potency, low ones higher potency. “5590 (GGGGTTGGGG; phosphodiester, further chemistry not given here) [compound 5590]” yielded an EC50 in series [3] (setting [10]) above 3000 nM. This compound also returned a TC50 in series [2] of 20 µM. Moreover, in series [5], the IC50 is above 25000 nM. With “5649 (TTGGGGTTGGGGTTGGGGTTGGGG; phosphodiester, further chemistry not given here) [compound 5649]”, in series [3] (setting [10]), the EC50 was above 3000 nM. Also, in series [1], the “TI (TC50/IC50)” value came to 300. “5650 (TTGGGGTTGGGGTTGGGGTT; phosphodiester, further chemistry not given here) [compound 5650]”: the 50% effective concentration (EC50) in series [3] (setting [10]) was above 3000 nM. The “TI (TC50/IC50)” value in series [1] is given as 12. For the same compound, the TC50 in series [2] was 7.6 µM. For the same compound, in series [5], inhibition was half-maximal at 640 nM (IC50).

Turning to “5651 (TTGGGGTTGGGGTTGGGGTTGGGG; phosphorothioate, further chemistry not given here) [compound 5651]”, in series [1], the “TI (TC50/IC50)” value is on record as 175. In series [2], the TC50 was 19, 19 μM. On to “5652 (TTGGGGTTGGGGTTGGGGTT; phosphorothioate, further chemistry not given here) [compound 5652]”, for which, in series [5], the “TI (TC50/IC50)” value is 227. With “5653 (TTGGGGTTGGGGTTGGGG; phosphorothioate, further chemistry not given here) [compound 5653]”, the TC50 in series [2] came out at 27 µM. Further, in series [5], inhibition was half-maximal at 190 nM (IC50). With “5666 (DNA TTGGGGTTGGGGTTGGGG; phosphodiester, further chemistry not given here) [compound 5666]”, the “TI (TC50/IC50)” value in series [1] is 100.

For “5667 (DNA TTGGGGTTGGGGTT; unmodified DNA) [compound 5667]”, in series [2], the TC50 stood at 5.6 µM. The compound further gave an IC50 in series [5] above 22000 nM. “5668 (DNA TTGGGGTTGGGG; unmodified DNA) [compound 5668]” showed a TC50 in series [2] of 5.2 µM. The compound further came in with an IC50 in series [5] above 21000 nM. Turning to “5669 (DNA GGGGTTGGGGTTGGGG; unmodified DNA) [compound 5669]”, in series [1], the “TI (TC50/IC50)” value is on record as 9. The TC50 in series [2] was determined as 9.6 µM. Also, in series [5], the IC50 came out at 1200 nM. In series [3] (setting [10]), “5670 (DNA GGGGTTGGGGTTGGGGTTGGGG; unmodified DNA) [compound 5670]” returned a concentration for a half-maximal effect (EC50) above 3000 nM. The compound further gave a TC50 in series [2] of 15 µM.

As for “5674 (DNA dT*dT*dG*dG*dG*dG*dT*dT*dG*dG*dG*dG) [compound 5674]”, the TC50 in series [2] was above 200 µM. As to “5675 (DNA dT*dT*dG*dG*dG*dG*dT*dT*dG*dG*dG*dG*dT*dT) [compound 5675]”, in series [1], the “TI (TC50/IC50)” value was determined as 36. The compound also showed a TC50 in series [2] of 14 µM. For “5676 (DNA dG*dG*dG*dG*dT*dT*dG*dG*dG*dG*dT*dT*dG*dG*dG*dG) [compound 5676]”, in series [1], the “TI (TC50/IC50)” value turned out to be 114. With “5677 (DNA dG*dG*dG*dG*dT*dT*dG*dG*dG*dG*dT*dT*dG*dG*dG*dG*dT*dT*dG*dG*dG*dG) [compound 5677]”, the “TI (TC50/IC50)” value in series [1] is reported as 146. `Nc1nc2c(ncn2COCCO)c(=O)[nH]1` [ACV, 9-(2-hydroxyethoxymethyl) guanine, reference compound]: in series [3] (FIG. 8 and FIG. 9), the “activity against HSV-1” value is listed as “more active than a control oligonucleotide, ISIS 3383”. For “AGGTCGAGGAGTGGTCTGAGC (dA*dG*dG*dT*dC*dG*dA*dG*dG*dA*dG*dT*dG*dG*dT*dC*dT*dG*dA*dG*dC) [ISIS 3631]”, the “I.C.50 relative to ISIS 3196” value in series [4] (b86, fold higher) is recorded as “approximately 10 fold”. Regarding “GCCGAGGTCCATGTCGTACGC (GCCGAGGTCCATGTCGTACGC; chemistry not given here) [ISIS 1082, negative control oligonucleotide complementary to HSV UL13 translation initiation codon; has no runs of G, reference compound]”, in series [3] (b150, duplicate experiments), the EC50 was 2500 nM and 1800 nM. As to GG GG [ISIS 4803], in series [6], the “% tetramer” value is recorded as 29* %. A word on the inhibition: it is the percentage by which the read-out fell short of the control. High values mean a response far below the control, low ones a response near the control. For the compound “GGG T GGG T ATA G AAG G GCT CC (GGGTGGGTATAGAAGGGCTCC; chemistry not given here) [ISIS 3196]”, the “inhibition of enzyme activity” value in series [4] (1 μM) is listed as “completely inhibited”. For the same compound, the inhibition amounted to 21% in series [4] (boiling water for 15 minutes prior to addition to the assay) and 94% in series [4] (native, not boiled). Moreover, the “effect on substrate kinetics” value in series [4] was “apparent noncompetitive inhibitor”. As for GGGGGGTG [ISIS 5684], the ED50 result in series [3] (b190) is “approximately 0.6 μM”. As to “GTAGGGAGGGAGGGTATGAGA (dG*dT*dA*dG*dG*dG*dA*dG*dG*dG*dA*dG*dG*dG*dT*dA*dT*dG*dA*dG*dA) [ISIS 3470]”, the “inhibition of enzyme activity” value in series [4] (1 μM) is on record as “completely inhibited”. Still for that read-out and setting: as for “GTGGAGGAGAGCAGTAGAAGG (dG*dT*dG*dG*dA*dG*dG*dA*dG*dA*dG*dC*dA*dG*dT*dA*dG*dA*dA*dG*dG) [ISIS 3477]”, the figure is 54.7%. In the case of GsGsGsGsT, the “% tetramer” value in series [6] is 61* %. For the same compound, in series [7], the IC50 came to 1400 nM.

For GsGsGsGsTsT, in series [6], the “% tetramer” value was 94* %. 500 nM corresponded to half-maximal inhibition in series [7] (IC50). As to “ISIS 1573: phosphorothioate deoxyoligonucleotide, SEQ ID NO: 120 (DNA dG*dA*dG*dG*dC*dT*dG*dA*dG*dG*dT*dG*dG*dG*dA*dG*dG*dA)”, the “inhibition of phospholipase A2” value in series [4] (concentrations as high as 10 μM) is on record as “did not significantly inhibit”. Take TGG GG [ISIS 5544]: the “inhibition of enzyme activity” value is listed as 50% in series [4] (1 μM) and “complete inhibition” in series [4] (3 μM). In addition, in series [6], the “% tetramer” value was 57* %. The IC50 result in series [7] was “inactive”. “TGTGTGTG [ISIS 6071, reference compound]”: the inhibition of binding result in series [8] is given as “showed inhibition of binding”. Moreover, in series [6], the “% tetramer” value was determined as 0%. For the same compound, the IC50 entry in series [7] is “inactive”. With TT GGGG TT [ISIS 5671], the IC50 result in series [7] (listed as ToToGoGoGoGoToT) was “inactive”. Turning to TT GGGG [ISIS 5739], in series [6], the “% tetramer” value is listed as 40* %. In series [7], half-maximal inhibition (IC50) required 13000 nM.

On to “TTTTTGATTTGCTAATTGCTT (dT*dT*dT*dT*dT*dG*dA*dT*dT*dT*dG*dC*dT*dA*dA*dT*dT*dG*dC*dT*dT) [ISIS 3481]”, for which, in series [4], the “effect on substrate kinetics” value is reported as “did not modify the substrate kinetics”. On to ToToGsGsGsGoToT, for which the “% tetramer” value in series [6] turned out to be 72%. The half-maximal inhibitory concentration (IC50) result in series [7] is “inactive”. For ToTsGoGsGoGsToT the same measures were 9% and “inactive”.

In the case of TsToGsGoGsGoTsT, in series [6], the “% tetramer” value came out at 83%. The compound also showed an IC50 in series [7] of 5300 nM. Turning to TsTsGoGoGoGsTsT, in series [6], the “% tetramer” value is reported as 80%. The compound also yielded an IC50 in series [7] of 5000 nM.

For the compound α-ToToGoGoGoGoToT, in series [6], the “% tetramer” value is recorded as 97%. For the same compound, the IC50 entry in series [7] is “inactive”.

As to α-TsTsGsGsGsGsTsT, in series [6], the “% tetramer” value stood at 98%. For the same compound, inhibition in series [7] was half-maximal at 500 nM (IC50).
